Data as given in article PMC9571063 (Molecules, 2022).

Legend:
ADCK4 = biological target: T1, ADCK4 (Homo sapiens, UniProt Q96D53); test: KINOMEscan; assay type: binding; details: read-out: Percent Control
T1 construct: purchased Eurofins DiscoverX KINOMEscan (scanMAX 468)

ALK(C1156Y) = biological target: T2, ALK(C1156Y) (Homo sapiens, UniProt Q9UM73, C1156Y); test: KINOMEscan; assay type: binding; details: read-out: Percent Control
T2 construct: purchased Eurofins DiscoverX KINOMEscan (scanMAX 468)

AMPK-alpha1 = biological target: T3, AMPK-alpha1 (Homo sapiens, UniProt Q13131); test: KINOMEscan; assay type: binding; details: read-out: Percent Control
T3 construct: purchased Eurofins DiscoverX KINOMEscan (scanMAX 468)

ARK5 = biological target: T4, ARK5 (Homo sapiens, UniProt O60285); test: KINOMEscan; assay type: binding; details: read-out: Percent Control
T4 construct: purchased Eurofins DiscoverX KINOMEscan (scanMAX 468)

CIT = biological target: T5, CIT (Homo sapiens, UniProt O14578); test: KINOMEscan; assay type: binding; details: read-out: Percent Control
T5 construct: purchased Eurofins DiscoverX KINOMEscan (scanMAX 468)

CSF1R-autoinhibited = biological target: T6, CSF1R-autoinhibited (Homo sapiens, UniProt P07333); test: KINOMEscan; assay type: binding; details: read-out: Percent Control
T6 construct: purchased Eurofins DiscoverX KINOMEscan (scanMAX 468)

CSNK1A1 = biological target: T7, CSNK1A1 (Homo sapiens, UniProt P48729); test: KINOMEscan; assay type: binding; details: read-out: Percent Control
T7 construct: purchased Eurofins DiscoverX KINOMEscan (scanMAX 468)

DRAK2 = biological target: T8, DRAK2 (Homo sapiens, UniProt O94768); test: KINOMEscan; assay type: binding; details: read-out: Percent Control
T8 construct: purchased Eurofins DiscoverX KINOMEscan (scanMAX 468)

ERK8 = biological target: T9, ERK8 (Homo sapiens, UniProt Q8TD08); test: KINOMEscan; assay type: binding; details: read-out: Percent Control
T9 construct: purchased Eurofins DiscoverX KINOMEscan (scanMAX 468)

FLT1 = biological target: T10, FLT1 (Homo sapiens, UniProt P17948); test: KINOMEscan; assay type: binding; details: read-out: Percent Control
T10 construct: purchased Eurofins DiscoverX KINOMEscan (scanMAX 468)
T10 sequence (P17948 27-1338): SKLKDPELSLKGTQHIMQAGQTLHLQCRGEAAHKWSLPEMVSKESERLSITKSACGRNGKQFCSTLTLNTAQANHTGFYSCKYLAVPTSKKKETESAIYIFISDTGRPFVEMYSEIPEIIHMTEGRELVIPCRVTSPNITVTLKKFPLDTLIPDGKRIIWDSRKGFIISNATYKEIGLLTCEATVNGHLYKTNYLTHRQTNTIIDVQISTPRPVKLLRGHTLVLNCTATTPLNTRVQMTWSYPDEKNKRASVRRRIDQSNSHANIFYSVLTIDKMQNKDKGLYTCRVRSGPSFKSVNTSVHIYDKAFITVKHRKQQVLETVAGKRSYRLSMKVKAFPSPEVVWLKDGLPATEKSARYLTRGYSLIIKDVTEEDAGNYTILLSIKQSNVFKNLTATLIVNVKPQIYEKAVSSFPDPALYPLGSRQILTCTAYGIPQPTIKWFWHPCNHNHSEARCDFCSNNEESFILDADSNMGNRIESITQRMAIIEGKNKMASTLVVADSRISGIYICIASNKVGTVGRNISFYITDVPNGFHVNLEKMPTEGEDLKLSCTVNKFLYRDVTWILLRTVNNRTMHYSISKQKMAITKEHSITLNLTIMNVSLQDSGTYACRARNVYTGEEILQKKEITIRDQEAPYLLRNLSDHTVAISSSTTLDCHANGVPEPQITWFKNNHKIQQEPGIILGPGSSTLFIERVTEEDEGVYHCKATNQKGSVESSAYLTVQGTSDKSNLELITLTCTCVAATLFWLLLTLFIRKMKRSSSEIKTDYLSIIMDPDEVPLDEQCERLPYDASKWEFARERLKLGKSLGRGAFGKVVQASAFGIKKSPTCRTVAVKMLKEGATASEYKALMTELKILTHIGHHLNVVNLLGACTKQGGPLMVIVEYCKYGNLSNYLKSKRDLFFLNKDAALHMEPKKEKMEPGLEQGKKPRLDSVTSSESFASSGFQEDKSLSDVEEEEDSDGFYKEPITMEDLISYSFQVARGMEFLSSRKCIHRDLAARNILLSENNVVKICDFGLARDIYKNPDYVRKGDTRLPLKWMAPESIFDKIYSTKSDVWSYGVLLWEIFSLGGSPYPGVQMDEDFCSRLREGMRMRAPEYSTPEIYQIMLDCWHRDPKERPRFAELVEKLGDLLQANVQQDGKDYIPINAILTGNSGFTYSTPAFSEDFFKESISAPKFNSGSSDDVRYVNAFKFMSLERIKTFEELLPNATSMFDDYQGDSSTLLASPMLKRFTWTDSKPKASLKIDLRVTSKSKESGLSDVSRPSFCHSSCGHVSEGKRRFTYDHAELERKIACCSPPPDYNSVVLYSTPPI

FLT3(D835H) = biological target: T11, FLT3(D835H) (Homo sapiens, UniProt P36888, D835H); test: KINOMEscan; assay type: binding; details: read-out: Percent Control
T11 construct: purchased Eurofins DiscoverX KINOMEscan (scanMAX 468)

HIPK4 = biological target: T12, HIPK4 (Homo sapiens, UniProt Q8NE63); test: KINOMEscan; assay type: binding; details: read-out: Percent Control
T12 construct: purchased Eurofins DiscoverX KINOMEscan (scanMAX 468)

HUNK = biological target: T13, HUNK (Homo sapiens, UniProt P57058); test: KINOMEscan; assay type: binding; details: read-out: Percent Control
T13 construct: purchased Eurofins DiscoverX KINOMEscan (scanMAX 468)

IGF1R = biological target: T14, IGF1R (Homo sapiens, UniProt P08069); test: KINOMEscan; assay type: binding; details: read-out: Percent Control
T14 construct: purchased Eurofins DiscoverX KINOMEscan (scanMAX 468)

IKK-beta = biological target: T15, IKK-beta (Homo sapiens, UniProt O14920); test: KINOMEscan; assay type: binding; details: read-out: Percent Control
T15 construct: purchased Eurofins DiscoverX KINOMEscan (scanMAX 468)

[1] = biological target: T16, JAK1(JH1domain-catalytic) (Homo sapiens, UniProt P23458); test: KINOMEscan; assay type: binding; details: read-out: Percent Control
T16 construct: JAK1(JH1domain-catalytic); purchased Eurofins DiscoverX KINOMEscan (scanMAX 468)

[2] = biological target: T17, JAK2(JH1domain-catalytic) (Homo sapiens, UniProt O60674); test: KINOMEscan; assay type: binding; details: read-out: Percent Control
T17 construct: JAK2(JH1domain-catalytic); purchased Eurofins DiscoverX KINOMEscan (scanMAX 468)

KIT(L576P) = biological target: T18, KIT(L576P) (Homo sapiens, UniProt P10721, L576P); test: KINOMEscan; assay type: binding; details: read-out: Percent Control
T18 construct: purchased Eurofins DiscoverX KINOMEscan (scanMAX 468)
T18 sequence (P10721 26-976 L576P): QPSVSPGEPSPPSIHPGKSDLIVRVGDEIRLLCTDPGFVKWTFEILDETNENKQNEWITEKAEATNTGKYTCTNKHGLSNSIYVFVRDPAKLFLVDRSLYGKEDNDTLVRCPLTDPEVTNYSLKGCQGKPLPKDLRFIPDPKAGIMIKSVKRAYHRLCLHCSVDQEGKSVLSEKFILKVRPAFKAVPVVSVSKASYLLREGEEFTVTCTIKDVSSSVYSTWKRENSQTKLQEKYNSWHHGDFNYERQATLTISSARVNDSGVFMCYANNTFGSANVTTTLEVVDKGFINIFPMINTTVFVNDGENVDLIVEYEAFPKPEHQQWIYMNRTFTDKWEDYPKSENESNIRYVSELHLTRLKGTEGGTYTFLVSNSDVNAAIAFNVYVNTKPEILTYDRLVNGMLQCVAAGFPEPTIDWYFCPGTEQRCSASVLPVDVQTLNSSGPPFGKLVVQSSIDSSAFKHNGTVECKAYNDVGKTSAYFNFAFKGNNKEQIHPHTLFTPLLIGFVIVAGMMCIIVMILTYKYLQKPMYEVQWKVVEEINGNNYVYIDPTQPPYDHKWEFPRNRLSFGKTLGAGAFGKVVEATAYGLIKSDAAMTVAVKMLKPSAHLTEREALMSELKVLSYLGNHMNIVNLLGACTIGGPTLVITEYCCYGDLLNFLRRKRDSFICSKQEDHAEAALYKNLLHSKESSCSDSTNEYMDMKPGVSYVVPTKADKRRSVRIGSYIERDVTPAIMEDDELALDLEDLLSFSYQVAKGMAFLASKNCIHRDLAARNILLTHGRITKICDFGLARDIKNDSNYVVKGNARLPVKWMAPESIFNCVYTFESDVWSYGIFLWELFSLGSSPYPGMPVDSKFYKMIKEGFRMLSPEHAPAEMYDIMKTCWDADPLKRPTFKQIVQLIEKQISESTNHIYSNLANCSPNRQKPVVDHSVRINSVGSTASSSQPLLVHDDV

MAK = biological target: T19, MAK (Homo sapiens, UniProt P20794); test: KINOMEscan; assay type: binding; details: read-out: Percent Control
T19 construct: purchased Eurofins DiscoverX KINOMEscan (scanMAX 468)

MEK2 = biological target: T20, MEK2 (Homo sapiens, UniProt P36507); test: KINOMEscan; assay type: binding; details: read-out: Percent Control
T20 construct: purchased Eurofins DiscoverX KINOMEscan (scanMAX 468)

MLK1 = biological target: T21, MLK1 (Homo sapiens, UniProt P80192); test: KINOMEscan; assay type: binding; details: read-out: Percent Control
T21 construct: purchased Eurofins DiscoverX KINOMEscan (scanMAX 468)

p38-delta = biological target: T22, p38-delta (Homo sapiens, UniProt O15264); test: KINOMEscan; assay type: binding; details: read-out: Percent Control
T22 construct: purchased Eurofins DiscoverX KINOMEscan (scanMAX 468)

PDPK1 = biological target: T23, PDPK1 (Homo sapiens, UniProt O15530); test: KINOMEscan; assay type: binding; details: read-out: Percent Control
T23 construct: purchased Eurofins DiscoverX KINOMEscan (scanMAX 468)

PIK3C2G = biological target: T24, PIK3C2G (Homo sapiens, UniProt O75747); test: KINOMEscan; assay type: binding; details: read-out: Percent Control
T24 construct: purchased Eurofins DiscoverX KINOMEscan (scanMAX 468)

PIK3CA(E545K) = biological target: T25, PIK3CA(E545K) (Homo sapiens, UniProt P42336, E545K); test: KINOMEscan; assay type: binding; details: read-out: Percent Control
T25 construct: purchased Eurofins DiscoverX KINOMEscan (scanMAX 468)

PIM1 = biological target: T26, PIM1 (Homo sapiens, UniProt P11309); test: KINOMEscan; assay type: binding; details: read-out: Percent Control
T26 construct: purchased Eurofins DiscoverX KINOMEscan (scanMAX 468)
T26 sequence (P11309 whole entry): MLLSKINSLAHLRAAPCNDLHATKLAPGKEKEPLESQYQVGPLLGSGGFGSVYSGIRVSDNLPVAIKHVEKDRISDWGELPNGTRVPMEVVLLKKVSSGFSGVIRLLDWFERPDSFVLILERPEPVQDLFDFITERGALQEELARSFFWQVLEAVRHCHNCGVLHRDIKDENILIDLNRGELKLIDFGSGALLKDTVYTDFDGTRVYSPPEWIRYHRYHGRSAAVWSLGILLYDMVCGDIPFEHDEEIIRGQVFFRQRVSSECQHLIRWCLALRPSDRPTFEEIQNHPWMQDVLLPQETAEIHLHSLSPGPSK

PKAC-alpha = biological target: T27, PKAC-alpha (Homo sapiens, UniProt P17612); test: KINOMEscan; assay type: binding; details: read-out: Percent Control
T27 construct: purchased Eurofins DiscoverX KINOMEscan (scanMAX 468)

ROS1 = biological target: T28, ROS1 (Homo sapiens, UniProt P08922); test: KINOMEscan; assay type: binding; details: read-out: Percent Control
T28 construct: purchased Eurofins DiscoverX KINOMEscan (scanMAX 468)

[3] = biological target: T29, RPS6KA4(Kin.Dom.2-C-terminal) (Homo sapiens, UniProt O75676); test: KINOMEscan; assay type: binding; details: read-out: Percent Control
T29 construct: RPS6KA4(Kin.Dom.2-C-terminal); purchased Eurofins DiscoverX KINOMEscan (scanMAX 468)
T29 sequence (O75676 372-772 limits assumed): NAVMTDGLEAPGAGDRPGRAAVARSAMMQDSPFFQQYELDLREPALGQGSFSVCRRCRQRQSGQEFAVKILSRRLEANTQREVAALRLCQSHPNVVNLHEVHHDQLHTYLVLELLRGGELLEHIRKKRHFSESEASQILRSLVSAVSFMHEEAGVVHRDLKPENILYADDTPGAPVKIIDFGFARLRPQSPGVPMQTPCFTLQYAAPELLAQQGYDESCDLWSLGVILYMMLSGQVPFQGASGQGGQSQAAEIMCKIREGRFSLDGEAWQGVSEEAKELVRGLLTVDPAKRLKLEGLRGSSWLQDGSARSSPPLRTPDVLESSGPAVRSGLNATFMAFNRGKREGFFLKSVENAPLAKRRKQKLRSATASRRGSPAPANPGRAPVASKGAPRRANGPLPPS

[4] = biological target: T30, RPS6KA5(Kin.Dom.2-C-terminal) (Homo sapiens, UniProt O75582); test: KINOMEscan; assay type: binding; details: read-out: Percent Control
T30 construct: RPS6KA5(Kin.Dom.2-C-terminal); purchased Eurofins DiscoverX KINOMEscan (scanMAX 468)

[5] = biological target: T31, RSK1(Kin.Dom.2-C-terminal) (Homo sapiens, UniProt Q15418); test: KINOMEscan; assay type: binding; details: read-out: Percent Control
T31 construct: RSK1(Kin.Dom.2-C-terminal); purchased Eurofins DiscoverX KINOMEscan (scanMAX 468)

SRC = biological target: T32, SRC (Homo sapiens, UniProt P12931); test: KINOMEscan; assay type: binding; details: read-out: Percent Control
T32 construct: purchased Eurofins DiscoverX KINOMEscan (scanMAX 468)

STK39 = biological target: T33, STK39 (Homo sapiens, UniProt Q9UEW8); test: KINOMEscan; assay type: binding; details: read-out: Percent Control
T33 construct: purchased Eurofins DiscoverX KINOMEscan (scanMAX 468)

TLK1 = biological target: T34, TLK1 (Homo sapiens, UniProt Q9UKI8); test: KINOMEscan; assay type: binding; details: read-out: Percent Control
T34 construct: purchased Eurofins DiscoverX KINOMEscan (scanMAX 468)

TNIK = biological target: T35, TNIK (Homo sapiens, UniProt Q9UKE5); test: KINOMEscan; assay type: binding; details: read-out: Percent Control
T35 construct: purchased Eurofins DiscoverX KINOMEscan (scanMAX 468)
T35 sequence (Q9UKE5 whole entry): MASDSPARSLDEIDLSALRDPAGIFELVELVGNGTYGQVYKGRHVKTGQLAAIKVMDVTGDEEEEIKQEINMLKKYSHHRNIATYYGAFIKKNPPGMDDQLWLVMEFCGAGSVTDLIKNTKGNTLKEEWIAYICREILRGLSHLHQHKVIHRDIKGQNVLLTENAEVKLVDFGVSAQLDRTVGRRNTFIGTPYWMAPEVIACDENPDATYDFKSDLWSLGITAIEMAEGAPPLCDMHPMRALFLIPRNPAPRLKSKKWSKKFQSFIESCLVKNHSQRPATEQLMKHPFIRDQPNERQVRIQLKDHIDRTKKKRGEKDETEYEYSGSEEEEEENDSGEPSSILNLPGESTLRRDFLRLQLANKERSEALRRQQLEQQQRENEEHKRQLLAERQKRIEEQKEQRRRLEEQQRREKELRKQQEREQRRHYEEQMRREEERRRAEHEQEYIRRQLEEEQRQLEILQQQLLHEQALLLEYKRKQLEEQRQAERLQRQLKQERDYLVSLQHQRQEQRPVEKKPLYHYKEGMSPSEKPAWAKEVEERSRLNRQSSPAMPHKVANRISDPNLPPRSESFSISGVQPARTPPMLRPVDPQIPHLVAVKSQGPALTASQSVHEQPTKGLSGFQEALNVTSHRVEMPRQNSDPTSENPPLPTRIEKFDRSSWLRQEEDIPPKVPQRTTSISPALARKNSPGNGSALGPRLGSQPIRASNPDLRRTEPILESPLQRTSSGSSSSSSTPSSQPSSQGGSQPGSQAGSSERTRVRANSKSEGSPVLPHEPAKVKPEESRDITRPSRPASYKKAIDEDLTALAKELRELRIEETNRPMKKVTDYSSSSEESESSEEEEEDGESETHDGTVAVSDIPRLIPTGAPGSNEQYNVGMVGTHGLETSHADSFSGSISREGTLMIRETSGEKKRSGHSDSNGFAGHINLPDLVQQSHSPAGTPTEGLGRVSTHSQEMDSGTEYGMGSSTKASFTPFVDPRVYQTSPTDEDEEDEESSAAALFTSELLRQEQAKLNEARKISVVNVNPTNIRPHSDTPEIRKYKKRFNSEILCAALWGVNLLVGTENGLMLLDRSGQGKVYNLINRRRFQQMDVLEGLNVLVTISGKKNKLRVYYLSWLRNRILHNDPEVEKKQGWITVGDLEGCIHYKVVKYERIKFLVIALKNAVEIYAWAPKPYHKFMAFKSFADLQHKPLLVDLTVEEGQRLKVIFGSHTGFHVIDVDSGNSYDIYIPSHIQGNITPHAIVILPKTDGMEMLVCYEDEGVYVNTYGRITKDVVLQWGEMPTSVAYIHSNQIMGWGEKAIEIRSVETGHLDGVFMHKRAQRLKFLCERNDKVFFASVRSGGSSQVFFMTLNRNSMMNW

ULK3 = biological target: T36, ULK3 (Homo sapiens, UniProt Q6PHR2); test: KINOMEscan; assay type: binding; details: read-out: Percent Control
T36 construct: purchased Eurofins DiscoverX KINOMEscan (scanMAX 468)
T36 sequence (Q6PHR2 whole entry): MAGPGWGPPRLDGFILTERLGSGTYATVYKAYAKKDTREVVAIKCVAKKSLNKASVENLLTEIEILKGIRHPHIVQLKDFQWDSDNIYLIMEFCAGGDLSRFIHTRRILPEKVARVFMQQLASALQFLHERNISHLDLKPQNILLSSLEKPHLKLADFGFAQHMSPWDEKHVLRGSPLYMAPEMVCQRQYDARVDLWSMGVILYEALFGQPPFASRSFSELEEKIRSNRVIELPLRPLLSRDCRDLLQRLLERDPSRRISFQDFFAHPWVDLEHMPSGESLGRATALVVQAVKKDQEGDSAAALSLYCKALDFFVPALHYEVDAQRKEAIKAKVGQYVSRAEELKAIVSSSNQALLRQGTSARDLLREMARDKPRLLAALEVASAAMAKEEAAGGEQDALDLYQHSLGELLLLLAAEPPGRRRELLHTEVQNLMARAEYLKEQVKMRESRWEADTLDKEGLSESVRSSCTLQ

WNK1 = biological target: T37, WNK1 (Homo sapiens, UniProt Q9H4A3); test: KINOMEscan; assay type: binding; details: read-out: Percent Control
T37 construct: purchased Eurofins DiscoverX KINOMEscan (scanMAX 468)

YSK4 = biological target: T38, YSK4 (Homo sapiens, UniProt Q56UN5); test: KINOMEscan; assay type: binding; details: read-out: Percent Control
T38 construct: purchased Eurofins (KINOMEscan, DiscoverX)

HuH7 = system: HuH7; parameters: method as in ref 14 (a number printed in a supplementary file, which may have a reference list of its own: not looked up in the article's list); details: DB18[a], footnote not given; read-out: Cytotoxic studies IC50 HuH7; cited from earlier work

Compound: Cc1ccc(-n2cc(COc3cccc4cnc(Nc5cccc(Cl)c5)nc34)nn2)c([N+](=O)[O-])c1 [DB18]
- remaining binding at 1 µM (ADCK4): 100%
- remaining binding at 1 µM (ALK(C1156Y)): 99%
- remaining binding at 1 µM (AMPK-alpha1): 94%
- remaining binding at 1 µM (ARK5): 100%
- remaining binding at 1 µM (CIT): 100%
- remaining binding at 1 µM (CSF1R-autoinhibited): 71%
- remaining binding at 1 µM (CSNK1A1): 94%
- remaining binding at 1 µM (DRAK2): 100%
- remaining binding at 1 µM (ERK8): 95%
- remaining binding at 1 µM (FLT1): 100%
- remaining binding at 1 µM (FLT3(D835H)): 55%
- remaining binding at 1 µM (HIPK4): 17%
- remaining binding at 1 µM (HUNK): 90%
- remaining binding at 1 µM (IGF1R): 100%
- remaining binding at 1 µM (IKK-beta): 100%
- remaining binding at 1 µM [1]: 100%
- remaining binding at 1 µM [2]: 100%
- remaining binding at 1 µM (KIT(L576P)): 100%
- remaining binding at 1 µM (MAK): 100%
- remaining binding at 1 µM (MEK2): 89%
- remaining binding at 1 µM (MLK1): 100%
- remaining binding at 1 µM (p38-delta): 100%
- remaining binding at 1 µM (PDPK1): 92%
- remaining binding at 1 µM (PIK3C2G): 97%
- remaining binding at 1 µM (PIK3CA(E545K)): 66%
- remaining binding at 1 µM (PIM1): 100%
- remaining binding at 1 µM (PKAC-alpha): 100%
- remaining binding at 1 µM (ROS1): 100%
- remaining binding at 1 µM [3]: 100%
- remaining binding at 1 µM [4]: 100%
- remaining binding at 1 µM [5]: 100%
- remaining binding at 1 µM (SRC): 100%
- remaining binding at 1 µM (STK39): 97%
- remaining binding at 1 µM (TLK1): 100%
- remaining binding at 1 µM (TNIK): 100%
- remaining binding at 1 µM (ULK3): 100%
- remaining binding at 1 µM (WNK1): 100%
- remaining binding at 1 µM (YSK4): 34%
- IC50 (HuH7): 25 µM
